Measurements taken from ChEMBL document CHEMBL3808372, “Identification of quinones as novel PIM1 kinase inhibitors” (Bioorg Med Chem Lett, 2016).

What was measured:
[1] = target: Serine/threonine-protein kinase pim-1 (Homo sapiens, UniProt P11309); test: Inhibition of recombinant human Pim1
[2] = Cytotoxicity against human DU145 cells assessed as cell growth inhibition after 72 hrs by Alamar blue assay; type: functional, cell-based; details: DU-145, 72 h

Sequence of Serine/threonine-protein kinase pim-1 (P11309 whole entry): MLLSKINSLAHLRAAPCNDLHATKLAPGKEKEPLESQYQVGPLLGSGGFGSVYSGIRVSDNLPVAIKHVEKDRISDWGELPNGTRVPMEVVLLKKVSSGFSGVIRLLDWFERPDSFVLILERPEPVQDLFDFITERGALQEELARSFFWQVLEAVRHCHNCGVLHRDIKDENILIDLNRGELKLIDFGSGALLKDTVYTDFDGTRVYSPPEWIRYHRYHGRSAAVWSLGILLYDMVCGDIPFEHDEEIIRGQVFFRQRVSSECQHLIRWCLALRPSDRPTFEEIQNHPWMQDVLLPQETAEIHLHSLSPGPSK

Q: With `O=C1C=C(CBr)C(=O)c2c(O)ccc(O)c21` as the molecule, how does the IC50 [1] read?
A: The IC50 was 27 µM.

Q: For `COc1c(O)c(O)c2c(c1O)C(=O)c1cc(C)cc(O)c1C2=O`, which IC50 [2] is on record?
A: Its IC50 is 3.93 µM.

Q: And the IC50 [1]?
A: Its IC50 is 21.4 µM.

Q: For `CC(=O)Oc1ccc(O)c2c1C(=O)C=CC2=O`, which IC50 [1] is on record?
A: The IC50 was 3 µM.

Q: With `CC(C)C(C)OC1CC(=O)CC2C(=O)c3c(O)ccc(O)c3C(=O)C12` (stereo unspecified) as the molecule, how does the IC50 [2] read?
A: Its IC50 is 4.06 µM.

Q: What about the IC50 [1] of the same molecule?
A: Its IC50 is 3.6 µM.

Q: For `Cc1cc(O)c2c(c1)C(=O)c1cc(O)cc(O)c1C2=O` [EMODIN], which IC50 [2] is on record?
A: The IC50 was 2.02 µM.

Q: What about the IC50 [1] of the same molecule?
A: The IC50 was 2.5 µM.

Q: With `COc1cccc2c1C(=O)c1c(O)ccc(O)c1C2=O` as the molecule, how does the IC50 [1] read?
A: The IC50 was 11.6 µM.

Q: Which IC50 [1] does the source give for `CC(C)(C)OC1CC(=O)CC2C(=O)c3cccc(O)c3C(=O)C12` (stereo unspecified) here?
A: Its IC50 is 23.8 µM.

Q: Which results are given for `CC(C)(C)OC1CC(O)CC2C(=O)c3c(O)ccc(O)c3C(=O)C12` (stereo unspecified)?
A: IC50 [2]: 3.21 µM; IC50 [1]: 3.5 µM

Q: With `Oc1ccc(O)c2c(O)c3c(O)ccc(O)c3c(O)c12` as the molecule, how does the IC50 [1] read?
A: Its IC50 is 57.1 µM.

Q: Which IC50 [1] does the source give for `O=Cc1cc(O)c2c(c1O)C(=O)C=CC2=O` here?
A: The IC50 was 28 µM.

Q: For `Cc1cc(O)c2c(c1)C(=O)C=CC2=O` [RAMENTACEONE], which IC50 [1] is on record?
A: Its IC50 is 28 µM.

Q: Which IC50 [1] does the source give for `O=C1C(CO)=C(CO)C(=O)c2c(O)ccc(O)c21` here?
A: The IC50 was 7.4 µM.
